Experimental data reported in paper PMC3792051, “Polyenylpyrrole Derivatives Inhibit NLRP3 Inflammasome Activation and Inflammatory Mediator Expression by Reducing Reactive Oxygen Species Production and Mitogen-Activated Protein Kinase Activation” (PLoS ONE, 2013).

What was measured:
[1] = test system: NLRP3 inflammasome in LPS+ATP-activated J774A.1 macrophages; test: NLRP3 inflammasome activation (IL-1β ELISA, caspase-1 p10 Western blot); format: cell-based, mouse; conditions: then ATP 5 mM 30 min
Experimental: The effects of the test samples on IL-1β, TNF-α, and IL-6 production were measured by ELISA according to the manufacturer’s instructions. In brief, 50 µl of biotinylated antibody reagent and 50 µl of supernatant were added to a stripwell plate precoated with anti-mouse IL-1β, TNF-α, or IL-6 antibodies, which was then incubated at room temperature for 2 h. After washing the plate three times with washing buffer, 100 µl of diluted streptavidin-HRP concentrate was added to each well and the plate incubated at room temperature for 30 min. The washing process was repeated, then 100 µl of a premixed tetramethylbenzidine substrate solution was added to each well and the plate incubated at room temperature in the dark for 30 min. After addition of 100 µl of stop solution to each well, the absorbance at 450 nm of each well was measured on a microplate reader.
(§1) Cells were washed twice with ice-cold phosphate-buffered saline (PBS) and lysed on ice for 5 min with lysis buffer (20 mM Tris-HCl, pH 7.5, 150 mM NaCl, 1 mM Na 2EDTA, 1 mM EGTA, 1% Triton X-100, 2.5 mM sodium pyrophosphate, 1 mM beta-glycerophosphate, 1 mM Na 3VO4, 1 µg/ml of leupeptin, 1 mM PMSF, protease inhibitor cocktail). The lysate was then centrifuged at 12,000 x g at 4 °C for 10 min and the pellet discarded. Proteins in the supernatant were separated by SDS-PAGE and electrotransferred to a PVDF membrane (EMD Millipore Corporation), which was then blocked by incubation for 1 h at room temperature in blocking buffer [(5% nonfat milk in PBS containing 0.1% Tween 20 (PBST)], then incubated for 2 h at room temperature with the primary antibody diluted in blocking buffer. After three washes in PBST, the membrane was incubated for 1 h at room temperature with an appropriate HRP-conjugated secondary antibody diluted in blocking buffer and developed using an enhanced chemiluminescence Western blot detection system (EMD Millipore Corporation).
ATP is known to activate the NLRP3 inflammasome in LPS-primed macrophages, leading to caspase-1 activation and IL-1β secretion. To examine whether compound 1h could affect NLRP3 inflammasome activation, the mouse macrophage cell line J774A.1 was used (RAW 264.7 macrophages are not suitable for studying the NLRP3 inflammasome). […]
Figure 4 Effect of compound 1h on NLRP3 inflammasome activation in LPS+ATP-activated J774A.1 macrophages. (A) J774A.1 macrophages (1 × 10^6/ml; 1 ml) or (B) peritoneal macrophages (1 × 10^5/ml; 1 ml) were incubated with 10-40 µM compound 1h or DMSO for 30 min, then LPS (1 µg/ml) was added and incubation continued for 5.5 h, then the cells were stimulated with ATP (5 mM) for an additional 30 min, then IL-1β in the culture medium was measured by ELISA (A, upper panel; B) and levels of active caspase-1 (p10) (A, lower panel) measured by Western blotting. In (C) and (D), J774A.1 macrophages (1 × 10^6/ml; 1ml) were incubated with LPS (1 µg/ml) for 5.5 h, then with 10-40 µM compound 1h or DMSO for 30 min in the continued presence of LPS, followed by stimulation with ATP (5 mM) for an additional 30 min, then IL-1β levels (C, upper panel) and IL-6 levels (D) in the culture medium were measured by ELISA and levels of active caspase-1 (p10) were measured by Western blotting (C, lower panel). […] In (E), J774A.1 macrophages (1 × 10^6/ml; 1 ml) were incubated for 30 min with DMSO or 1-40 µM compound 1h, then LPS (1 µg/ml) was added and incubation continued for 6 h, then expression of NLRP3 and proIL-1β was measured by Western blotting. […]

[2] = test system: LPS-activated J774A.1 macrophages; test: NF-κB signaling (IKK-α/IκB-α Western blot, p65 nuclear translocation ELISA); format: cell-based, murine; conditions: J774A.1, 10-40 µM 30 min, LPS 20 min
Experimental: as §1
(§2) Nuclear proteins were extracted from RAW 264.7 and J774A.1 cells using a Nuclear Extract Kit (Active Motif) according to the manufacturer’s instructions and nuclear NF-κB p65 activation quantified using an ELISA-based TransAM NF-κB kit (Active Motif, Tokyo, Japan) according to the manufacturer’s protocol by reading the absorbance at 450 nm with a microplate absorbance reader (Bio-Rad Laboratories, Inc) and a reference wavelength of 655 nm.
(§3) Following LPS stimulation, IκB in the complex is phosphorylated by IκB kinase (IKK), ubiquitinated, and rapidly degraded in proteasomes, thus releasing NF-κB [30].
(§4) Figure 6 Effect of compound 1h on NF-κB activation in LPS-activated macrophages. (A) RAW 264.7 macrophages or (B) J774A.1 macrophages (both 5 × 10^5/ml; 1 ml) were incubated for 30 min with 10-40 µM compound 1h or DMSO, then LPS (1 µg/ml) was added and incubation continued for 20 min, then levels of phosphorylated and total IKK-α and IκB-α were measured by Western blotting. (C) RAW 264.7 macrophages or (D) J774A.1 macrophages (both 5 × 10^5/ml; 1 ml) were treated as in A and B, then nuclear translocation of NF-κB was analyzed by ELISA. (E) RAW-Blue^TM cells (5 × 10^5/ml; 1 ml) were incubated for 30 min with 2.5-40 µM compound 1h or DMSO, then LPS (1 µg/ml) was added and incubation continued for 24 h, then SEAP activity was measured by the QUANTI-Blue^TM assay and expressed as a percentage of that in the absence of compound 1h. In (A) and (B), the results are representative of those obtained in three different experiments. In (C-E), the data are expressed as the mean ± SD for three separate experiments. *, **, and *** indicate a significant difference at the level of p < 0.05, p < 0.01, and p < 0.001, respectively, compared to the DMSO/LPS group.

[3] = test system: LPS-activated RAW 264.7 macrophages; test: as above; format: cell-based, murine; conditions: RAW 264.7, 10-40 µM 30 min, LPS 20 min
Experimental: as §1, §2, §3, §4

[4] = J774A.1, LPS 5.5 h first, then compound 10-40 µM 30 min
[5] = J774A.1, compound 10-40 µM 30 min before LPS 5.5 h

## O=c1cc(O)cc(/C=C/C=C/C=C/C=C/c2[nH]ccc2Cl)o1 [compound 1h]
[1]; [4]
  Caspase-1 activation (p10): not caspase-1 activation
  IL-1β secretion: inhibited the LPS-induced increase in IL-1β secretion
  IL-6 secretion: had no significant effect on IL-6 secretion
[1]; [5]
  Generation of active caspase-1 (p10): significantly inhibited
  IL-1β secretion: significantly inhibited IL-1β secretion
[2]
  IκB-α degradation: had a inhibitory effect on IκB-α degradation
  NF-κB nuclear translocation: inhibited NF-κB nuclear translocation
  Phosphorylation of IKK-α and IκB-α: inhibited phosphorylation of IKK-α and IκB-α in a dose-dependent manner
[3]
  IκB-α degradation: had a inhibitory effect on IκB-α degradation
  NF-κB nuclear translocation: inhibited NF-κB nuclear translocation
  Phosphorylation of IKK-α and IκB-α: inhibited phosphorylation of IKK-α and IκB-α in a dose-dependent manner
